Experimental data as given in PMC6154586 (Molecules : A Journal of Synthetic Chemistry and Natural …, 2017).

Experiments:
Assay type in all cases: cell-based
Conditions in all cases: human
[1] = in vitro cytotoxicity bioassay, HepG2
Protocol: (§1) These two experiments were conducted according to reference procedures.

[2] = in vitro cytotoxicity bioassay, MCF-7
Protocol: as §1

[3] = in vitro cytotoxicity bioassay, PC-3
Protocol: as §1

[4] = in vitro cytotoxicity bioassay, MDA-MB-435
Protocol: as §1

[5] = HepG2 cells (hepatoma cell line)
[6] = MCF-7 cells (breast cancer cell line)
[7] = PC-3 cells (prostatic cancer cell line)
[8] = MDA-MB-435 cells (breast cancer cell line)

Measured: IC50

C=C1C2(CC(O)C(=O)OC2(C)C)CC(OC(C)=O)C2(C)C13OC14C(=O)OC(C)(C(=C)C12C(=O)OC4C)C3OC(C)=O (stereo not shown) [Compound 1, 2-hydroacetoxydehydroaustin]
> 50 µM: [1]; [5] | [2]; [6] | [3]; [7] | [4]; [8]

C=C1[C@]2(C)C(=O)[C@]3(O)[C@@H](C)OC(=O)[C@]13[C@@]1(C)CC[C@@]3(C=CC(=O)OC3(C)C)C(C)=C1[C@@H]2OC(C)=O [Compound 2, 11-acetoxyisoaustinone]
> 50 µM: [1]; [5] | [2]; [6] | [3]; [7] | [4]; [8]

C=C1[C@@]2(C)CC3=C(C)[C@]4(C=CC(=O)OC4(C)C)CC[C@]3(C)[C@@]13C(=O)O[C@H](C)[C@@]3(O)C2=O [Compound 3, isoaustinol]
> 50 µM: [1]; HepG2 | [2]; MCF-7 | [3]; PC-3 | [4]; MDA-MB-435

C=C1[C@@]23C(=O)O[C@H](C)[C@@]2(O)C(=O)O[C@]1(C)[C@@H](OC(C)=O)C1=C(C)[C@]2(C=CC(=O)OC2(C)C)CC[C@@]13C [Compound 4, austin]
> 50 µM: [1]; HepG2 | [2]; MCF-7 | [3]; PC-3 | [4]; MDA-MB-435

C=C1[C@@]23C(=O)O[C@H](C)[C@@]2(O)C(=O)O[C@]1(C)[C@@H](O)C1=C(C)[C@]2(C=CC(=O)OC2(C)C)CC[C@@]13C [Compound 5, austinol]
> 50 µM: [1]; [5] | [2]; [6] | [3]; [7] | [4]; [8]

C=C1[C@@]23C(=O)O[C@H](C)[C@]24O[C@@]2(C(=C)[C@]5(C=CC(=O)OC5(C)C)C[C@@H](OC(C)=O)[C@]32C)[C@H](OC(C)=O)[C@@]1(C)OC4=O [Compound 6, acetoxydehydroaustin]
> 50 µM: [1]; HepG2 | [2]; MCF-7 | [3]; PC-3 | [4]; MDA-MB-435

C=C1[C@@]23C(=O)O[C@H](C)[C@]24O[C@@]2(C(=C)[C@]5(C=CC(=O)OC5(C)C)CC[C@]32C)[C@H](OC(C)=O)[C@@]1(C)OC4=O [Compound 7, dehydroaustin]
> 50 µM: [1]; HepG2 | [2]; MCF-7 | [3]; PC-3 | [4]; MDA-MB-435

C=C1[C@@]23C(=O)O[C@H](C)[C@]24O[C@@]2(C(=C)[C@]5(C=CC(=O)OC5(C)C)CC[C@]32C)[C@H](O)[C@@]1(C)OC4=O [Compound 8, dehydroaustinol]
> 50 µM: [1]; HepG2 | [2]; MCF-7 | [3]; PC-3 | [4]; MDA-MB-435

C=C1[C@@]2(C)C[C@H]3[C@]4(C)C=CC(=O)OC(C)(C)[C@H]4CC[C@]3(C)[C@]1(C(=O)OC)C(=O)[C@@](C)(O)C2=O [Compound 9, preaustinoid A2]
> 50 µM: [1]; [5] | [2]; [6] | [3]; [7] | [4]; [8]

C=C1[C@@]23C(=O)O[C@H](C)[C@]24O[C@@]2(C(=C)[C@]5(CCC(=O)OC5(C)C)C[C@@H](OC(C)=O)[C@]32C)[C@H](OC(C)=O)[C@@]1(C)OC4=O [Compound 10, 1,2-dihydro-acetoxydehydroaustin B]
> 50 µM: [1]; [5] | [2]; [6] | [3]; [7] | [4]; [8]
